Source: the supplement of paper PMC10307832

How the values were obtained:
Experiment in all cases: relative viability (nuclei count vs DMSO), 5 days (fraction); higher = more cells survive
[1] = compound: O=C(O)C(Cc1ccccc1[N+](=O)[O-])=NNc1nc(-c2ccc(Cl)c(Cl)c2)cs1 (mixture of isomers) [4EGI-1] + O=C(CCCCCCC(=O)Nc1ccccc1)NO [Vorinostat] (partner 1 µM)
Outline: (§1)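 Cells from lung cancer lines were seeded into 1536-well plates and, one day later, dosed by pin tool. Treatments were either a single drug or a fixed dose of an anchor drug with five library-drug doses (not always all listed) in √10 steps. After 5 days, nuclei were stained in a one-step fixation (final 0.05% Triton X-100, 1% formaldehyde, 1 ug/ml Hoechst) and counted on 4× images, and relative viability is the treated-to-vehicle nuclei ratio, as the median of duplicate plates.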

[2] = compound: CN1CCN(CC1)C2=CC(=C(C=C2)NC3=NC=C4C(=N3)N(C5=CC=CC=C5C(=O)N4C)C)OC [XMD8-85] + Cc1nc(NC(=O)N2CCC[C@H]2C(N)=O)sc1-c1ccnc(C(C)(C)C(F)(F)F)c1 [Alpelisib] (partner 2 µM)
Outline: as §1

[3] = compound: CN1CCN(CC1)C2=CC(=C(C=C2)NC3=NC=C4C(=N3)N(C5=CC=CC=C5C(=O)N4C)C)OC [XMD8-85] + N=C(N)NC(=N)NCCc1ccccc1 [Phenformin] (partner 250 µM)
Outline: as §1

[4] = compound: CN1CCN(CC1)C2=CC(=C(C=C2)NC3=NC=C4C(=N3)N(C5=CC=CC=C5C(=O)N4C)C)OC [XMD8-85] + CC(=O)Nc1cccc(-n2c(=O)n(C3CC3)c(=O)c3c(Nc4ccc(I)cc4F)n(C)c(=O)c(C)c32)c1 [Trametinib] (partner 0.02 µM)
Outline: as §1

Row | Cell Line | relative viability ([1]; first compound 0.5 µM) | relative viability ([1]; first compound 5 µM) | relative viability ([1]; first compound 15.81 µM) | relative viability ([1]; first compound 50 µM) | relative viability ([2]; first compound 0.08 µM) | relative viability ([2]; first compound 0.253 µM) | relative viability ([2]; first compound 0.8 µM) | relative viability ([2]; first compound 2.53 µM) | relative viability ([2]; first compound 8 µM) | relative viability ([3]; first compound 0.08 µM) | relative viability ([3]; first compound 0.253 µM) | relative viability ([3]; first compound 0.8 µM) | relative viability ([3]; first compound 2.53 µM) | relative viability ([3]; first compound 8 µM) | relative viability ([4]; first compound 0.08 µM) | relative viability ([4]; first compound 0.253 µM) | relative viability ([4]; first compound 0.8 µM) | relative viability ([4]; first compound 2.53 µM) | relative viability ([4]; first compound 8 µM) | relative viability ([1]; first compound 1.581 µM)
1 | NCI-H23 | 0.779 | 0.612 | 0.58 | 0.165 | 0.608 | 0.824 | 0.741 | 0.64 | 0.391 | 0.797 | 0.791 | 0.806 | 0.694 | 0.774 | 0.419 | 0.402 | 0.369 | 0.28 | 0.24 | 
2 | NCI-H2405 | 1.07 | 1.02 | 1.01 | 0.35 | 0.812 | 0.818 | 0.833 | 0.539 | 0.568 | 0.391 | 0.391 | 0.366 | 0.381 | 0.228 | 0.572 | 0.597 | 0.637 | 0.647 | 0.628 | 
3 | RERF-LC-KJ | 0.796 | 0.739 | 0.58 | 0.428 | 0.763 | 0.675 | 0.957 | 0.915 | 0.677 | 0.46 | 0.445 | 0.406 | 0.379 | 0.326 | 0.887 | 0.853 | 0.873 | 0.904 | 0.727 | 0.434
4 | HCC-827 | 0.785 | 0.902 |  | 0.274 | 0.946 | 1.06 | 0.939 | 1.08 | 0.996 | 0.389 |  |  | 0.49 | 0.45 | 0.55 | 0.461 | 0.528 | 0.512 | 0.496 | 0.698
5 | NCI-H358 | 0.609 | 0.663 | 0.319 | 0.0967 | 0.957 | 0.856 | 1.11 | 0.854 | 0.584 | 0.301 | 0.314 | 0.312 | 0.385 | 0.167 | 0.111 | 0.139 | 0.128 | 0.11 | 0.132 | 0.613
6 | NCI-H650 | 0.528 | 0.472 | 0.488 | 0.296 | 1.09 | 0.928 | 1.17 | 0.979 | 0.592 |  | 0.44 | 0.439 | 0.436 | 0.306 | 0.904 | 1 | 0.977 | 0.94 | 0.601 | 
7 | SW 1573 | 1.09 | 0.48 | 0.455 | 0.164 | 0.917 | 0.596 | 0.745 | 0.615 | 0.663 | 0.466 | 0.37 | 0.392 | 0.389 | 0.306 | 0.542 | 0.522 | 0.594 | 0.427 | 0.262 | 0.787
8 | NCI-H661 | 0.856 | 0.789 | 0.681 | 0.353 |  | 0.596 | 0.551 | 0.819 | 0.552 | 0.292 | 0.287 | 0.278 | 0.276 | 0.287 | 0.548 | 0.536 | 0.583 | 0.653 | 0.43 | 0.702
9 | UMC-11 | 0.448 | 0.449 | 0.446 | 0.296 | 0.954 | 0.931 | 1 | 0.939 | 0.387 | 0.337 | 0.348 | 0.398 | 0.33 | 0.232 | 0.723 | 0.738 | 0.696 | 0.683 | 0.403 | 0.408
